Measurements published in PubChem BioAssay (NCI).
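Values below derive from 48-hour exposures of cells grown in 96-well plates, with endpoints linearly interpolated between the two concentrations bracketing the appropriate inhibition level. GI50 = concentration required for 50% inhibition of growth. TGI is the concentration that stops growth completely.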

Legend:
Test in all cases: DTP human tumour cell line panel, 48 h
[1] = tested on: 786-0 renal
[2] = tested on: A498 renal
[3] = tested on: A549 NSCLC
[4] = tested on: ACHN renal
[5] = tested on: BT-549 breast
[6] = tested on: CAKI-1 renal
[7] = tested on: CCRF-CEM leukemia
[8] = tested on: COLO 205 colon
[9] = tested on: DU-145 prostate
[10] = tested on: EKVX NSCLC
[11] = tested on: HCC-2998 colon
[12] = tested on: HCT-116 colon
[13] = tested on: HCT-15 colon
[14] = tested on: HL-60(TB) leukemia
[15] = tested on: HOP-62 NSCLC
[16] = tested on: HOP-92 NSCLC
[17] = tested on: HS 578T breast
[18] = tested on: HT29 colon
[19] = tested on: IGROV1 ovarian
[20] = tested on: K-562 leukemia
[21] = tested on: KM12 colon
[22] = tested on: LOX IMVI melanoma
[23] = tested on: M14 melanoma
[24] = tested on: MALME-3M melanoma
[25] = tested on: MCF7 breast
[26] = tested on: MDA-MB-231 breast
[27] = tested on: MDA-MB-435
[28] = tested on: MOLT-4 leukemia
[29] = tested on: NCI-H226 lung
[30] = tested on: NCI-H23 lung
[31] = tested on: NCI-H460 lung
[32] = tested on: NCI-H522 lung
[33] = tested on: NCI/ADR-RES ovarian
[34] = tested on: OVCAR-3 ovarian
[35] = tested on: OVCAR-4 ovarian
[36] = tested on: OVCAR-5 ovarian
[37] = tested on: OVCAR-8 ovarian
[38] = tested on: PC-3 prostate
[39] = tested on: RPMI-8226 leukemia
[40] = tested on: RXF 393 renal
[41] = tested on: SF-268 CNS
[42] = tested on: SF-295 CNS
[43] = tested on: SK-MEL-2 melanoma
[44] = tested on: SK-MEL-28 melanoma
[45] = tested on: SK-MEL-5 melanoma
[46] = tested on: SK-OV-3 ovarian
[47] = tested on: SN12C renal
[48] = tested on: SNB-19 CNS
[49] = tested on: SNB-75 CNS
[50] = tested on: SR leukemia
[51] = tested on: SW-620 colon
[52] = tested on: T-47D breast
[53] = tested on: TK-10 renal
[54] = tested on: U251 CNS
[55] = tested on: UACC-257 melanoma
[56] = tested on: UACC-62 melanoma
[57] = tested on: UO-31 renal

## COc1ccc(C2C(C#N)=C(N)Oc3c2sc2c(Br)cccc32)cc1 (centres undefined)
[1]
  GI50: 3.25 µM
  TGI: 13 µM
[2]
  GI50: 1.37 µM
  TGI: 13.9 µM
[3]
  GI50: 4.69 µM
  TGI: 21 µM
[4]
  GI50: 4.82 µM
  TGI: 19.3 µM
[5]
  GI50: 4.76 µM
  TGI: 25.3 µM
[6]
  GI50: 2.47 µM
  TGI: 18.2 µM
[7]
  GI50: 1.63 µM
  TGI: 7.02 µM
[8]
  GI50: 2.23 µM
  TGI: 5.39 µM
[9]
  GI50: 3.27 µM
  TGI: 11.2 µM
[10]
  GI50: 4.38 µM
  TGI: 21 µM
[11]
  GI50: 1.64 µM
  TGI: 6.25 µM
[12]
  GI50: 1.93 µM
  TGI: 12.3 µM
[13]
  GI50: 0.93 µM
  TGI: 10.7 µM
[14]
  GI50: 1.12 µM
  TGI: 3.73 µM
[15]
  GI50: 4.48 µM
  TGI: 17.5 µM
[16]
  GI50: 8.88 µM
  TGI: 26.4 µM
[17]
  GI50: 3.3 µM
  TGI: 36.1 µM
[18]
  GI50: 3.8 µM
  TGI: 11.2 µM
[19]
  GI50: 2.29 µM
  TGI: 20.9 µM
[20]
  GI50: 0.404 µM
  TGI: 5.79 µM
[21]
  GI50: 1.92 µM
  TGI: 14 µM
[22]
  GI50: 2.03 µM
  TGI: 12.8 µM
[23]
  GI50: 1.46 µM
  TGI: 6.8 µM
[24]
  GI50: 4.75 µM
  TGI: 25.3 µM
[25]
  GI50: 0.467 µM
  TGI: 12 µM
[26]
  GI50: 2.78 µM
  TGI: 12.7 µM
[27]
  GI50: 0.373 µM
  TGI: 2.54 µM
[28]
  GI50: 1.55 µM
  TGI: 6.78 µM
[29]
  GI50: 6.62 µM
  TGI: 24 µM
[30]
  GI50: 2.64 µM
  TGI: 14.2 µM
[31]
  GI50: 2.08 µM
  TGI: 21.9 µM
[32]
  GI50: 1.75 µM
  TGI: 6.28 µM
[33]
  GI50: 0.767 µM
  TGI: 4.26 µM
[34]
  GI50: 0.979 µM
  TGI: 3.75 µM
[35]
  GI50: 3.02 µM
  TGI: 21.9 µM
[36]
  GI50: 8.95 µM
  TGI: 26.5 µM
[37]
  GI50: 4.99 µM
  TGI: 25.3 µM
[38]
  GI50: 2.86 µM
  TGI: 17.3 µM
[39]
  GI50: 2.9 µM
  TGI: 12.5 µM
[40]
  GI50: 1.94 µM
  TGI: 5.96 µM
[41]
  GI50: 4.62 µM
  TGI: 21.5 µM
[42]
  GI50: 0.907 µM
  TGI: 6.54 µM
[43]
  GI50: 2.38 µM
  TGI: 12.7 µM
[44]
  GI50: 8.15 µM
  TGI: 24.1 µM
[45]
  GI50: 2.4 µM
  TGI: 10.7 µM
[46]
  GI50: 4.68 µM
  TGI: 19.9 µM
[47]
  GI50: 4 µM
  TGI: 17 µM
[48]
  GI50: 4.04 µM
  TGI: 21.6 µM
[49]
  GI50: 1.61 µM
  TGI: 8.06 µM
[50]
  GI50: 0.473 µM
  TGI: 3.37 µM
[51]
  GI50: 1.87 µM
  TGI: 86.6 µM
[52]
  GI50: 3.13 µM
  TGI: 15 µM
[53]
  GI50: 8.48 µM
  TGI: 22.2 µM
[54]
  GI50: 3.25 µM
  TGI: 12.4 µM
[55]
  GI50: 13.6 µM
  TGI: 32.7 µM
[56]
  GI50: 0.996 µM
  TGI: 15.4 µM
[57]
  GI50: 3.21 µM
  TGI: 17.7 µM
